# “Also recorded” adds a separate entry of the source.
# How the values were obtained:
# human CAR [1] = molecular target: T1, human CAR (Homo sapiens, UniProt Q14994); assay: Northern blot of gene induction in CAR humanized mice; settings: CAR humanized animals
# T1 sequence (Q14994 1-348 isoform Q14994-2): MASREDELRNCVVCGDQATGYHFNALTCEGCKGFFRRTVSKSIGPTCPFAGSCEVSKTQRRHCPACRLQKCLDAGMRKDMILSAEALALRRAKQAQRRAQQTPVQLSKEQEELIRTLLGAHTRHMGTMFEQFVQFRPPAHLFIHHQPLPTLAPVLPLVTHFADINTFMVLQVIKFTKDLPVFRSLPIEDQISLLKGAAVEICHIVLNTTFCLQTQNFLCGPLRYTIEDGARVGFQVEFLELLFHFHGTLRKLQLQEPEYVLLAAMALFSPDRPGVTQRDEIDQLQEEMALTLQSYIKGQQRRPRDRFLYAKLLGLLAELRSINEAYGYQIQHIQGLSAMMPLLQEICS
# Protocol: CAR humanized mice (n=3) were treated with 500 mg/kg APAP or vehicle. After two hours, total liver RNA was prepared and subjected to Northern blot analysis with indicated probes.
# human CAR [2] = molecular target: T1, human CAR; assay: Sensitivity of CAR humanized mice to APAP, serum ALT; parameters: expressed in transfected cells; host or cells: liver of transgenic C57BL/6 mice (line 6210, albumin promoter), crossed onto the murine CAR -/- background; settings: CAR humanized mice pretreated three days, APAP 250 mg/kg
# Protocol: FIG. 13 illustrates the sensitivity of CAR humanized mice to APAP. CAR humanized mice (n=3) were pretreated with phenobarbital (PB) or vehicle alone for three days and administered a 250 mg/kg dose of APAP by intraperitoneal injection. Serum was collected and alanine aminotransferase (ALT) levels were measured after 24 hours.
# murine CAR receptor = molecular target: T2, murine CAR receptor (Mus musculus, UniProt O35627, M138L); settings: cited from earlier work
# T2 sequence (O35627 1-358 M138L): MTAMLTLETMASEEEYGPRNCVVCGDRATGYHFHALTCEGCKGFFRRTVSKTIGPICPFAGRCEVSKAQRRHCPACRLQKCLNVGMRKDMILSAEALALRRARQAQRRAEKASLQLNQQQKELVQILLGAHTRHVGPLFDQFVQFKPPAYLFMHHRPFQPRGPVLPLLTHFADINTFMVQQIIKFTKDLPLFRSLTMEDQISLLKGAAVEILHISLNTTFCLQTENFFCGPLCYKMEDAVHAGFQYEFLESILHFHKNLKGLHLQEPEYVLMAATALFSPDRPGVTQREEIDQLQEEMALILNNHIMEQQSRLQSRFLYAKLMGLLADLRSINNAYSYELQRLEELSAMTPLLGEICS
SMILES,expression of CYP1A2 and CYP3A11 mRNAs (human CAR [1]),sensitivity to APAP (human CAR [2]),activity on murine CAR receptor (murine CAR receptor)
"CCC1(c2ccccc2)C(=O)NC(=O)NC1=O [PB, phenobarbital]",induced expression,increased sensitivity to APAP,–
"Clc1cnc(Oc2ccc(Oc3ncc(Cl)cc3Cl)cc2)c(Cl)c1 [TCPOBOP, 1,4-bis[2-(3,5-dichloropyridyloxy)]benzene]",–,–,agonist ligand; also recorded: activate murine CAR

# Reference: patent US7186879B2, “Screening systems and methods for identifying modulators of xenobiotic metabolism” (Baylor College of Medicine, priority 2001, dated 2007)
